# Columns and labels:
# Format in all cases: in vivo
# [1] = test system: scopolamine-induced amnesia; test: Y-shaped maze test, spontaneous alternation behavior, scopolamine-induced amnesia; conditions: once orally 60 min before test, ddY mice
# Method: Male mice (n=15 to 75) of the ddY strain (approximately 7-week old) were used, and they received food and water ad lib. Test substances used were 0.05 nmol/kg weight (0.1 μg/kg weight), 0.5 nmol/kg weight (1 μg/kg weight), 1.5 nmol/kg weight (3 μg/kg weight), 5 nmol/kg weight (10 μg/kg weight), 50 nmol/kg weight (100 μg/kg weight), and 500 nmol/kg weight (1000 μg/kg weight) of Asn-Ile-Pro-Pro-Leu-Thr-Gln-Thr-Pro-Val-Val-Val-Pro-Pro-Phe-Leu-Gln-Pro-Glu. The test substances were administered to the mice once orally 60 minutes before the execution of a Y-shaped maze test for evaluation of spontaneous alternation behavior. Further, 30 minutes before the execution of the Y-shaped maze test, 1 mg/kg weight of scopolamine was subcutaneously administered on the backs of the mice in order to induce brain dysfunction (dysmnesia and/or cognitive impairment) in the mice. In the Y-shaped maze test, a Y-shaped maze was used as an experimental device, in which the length of each arm was 40 cm, the height of the wall was 12 cm, the width of the floor was 3 cm, and the width of the upper part was 10 cm, and three arms were connected to each other at an angle of 120 degrees. Each of the mice was placed at the tip of any one of the arms of the Y-shaped maze, and then let go to freely explore in the maze for 8 minutes. The sequence of the arms each of the mice entered was recorded. The number of entries by each of the mice for each of the arms during the measurement time was counted to be the total number of entries. In the sequence, the combination in which three different arms were selected in succession (for example, with the three arms respectively called A, B, and C, if the sequence of the arms entered is ABCBACACB, the count is 4 inclusive of overlapping) was investigated, and the number of the count was used as the number of spontaneous alternation behavior. The percentage of spontaneous alternation behavior was calculated by dividing the number of spontaneous alternation behavior by a number obtained by subtracting 2 from the total number of entries, and multiplying a resultant number by 100. The percentage of spontaneous alternation behavior was used as an indicator. […] The measured values were expressed in the form of mean±standard error for each group. A significant difference between the control group and the scopolamine control group was calculated using Student's t-test. Further, a significant difference between the scopolamine control group and the NIPPLTQTPVVVPPFLQPE-administered groups was calculated using Dunnett's multiple comparison test after one-way analysis of variance.
# Male mice (n=15 to 45) of the ddY strain (approximately 7-week old) were used, and they received food and water ad Iib. Test substances used were: 50 nmol/kg weight (100 μg/kg weight) of Asn-Ile-Pro-Pro-Leu-Thr-Gln-Thr-Pro-Val-Val-Val-Pro-Pro-Phe-Leu-Gln-Pro-Glu; 50 nmol/kg weight (120 μg/kg weight) of […]([…]); 50 nmol/kg weight (100 μg/kg weight) of Ile-Pro-Pro-Leu-Thr-Gln-Thr-Pro-Val-Val-Val-Pro-Pro-Phe-Leu-Gln-Pro-Glu (IPPLTQTPVVVPPFLQPE); 50 nmol/kg weight (100 μg/kg weight) of Asn-Ile-Pro-Pro-Leu-Thr-Gln-Thr-Pro-Val-Val-Val-Pro-Pro-Phe-Leu-Gln-Pro (NIPPLTQTPVVVPPFLQP) (SEQ ID NO: 18); and 50 nmol/kg weight (50 μg/kg weight) of Thr-Gln-Thr-Pro-Val-Val-Val-Pro-Pro-Phe (TQTPVVVPPF) (SEQ ID NO: 19). The test substances were administered to the mice once orally 60 minutes before the execution of a Y-shaped maze test for evaluation of spontaneous alternation behavior. Further, 30 minutes before the execution of the Y-shaped maze test, 1 mg/kg weight of scopolamine was subcutaneously administered on the backs of the mice in order to induce brain dysfunction (dysmnesia and/or cognitive impairment) in the mice. […]
# [2] = test system: scopolamine-induced amnesia; test: as above; conditions: once orally 60 min before test, scopolamine 1 mg/kg s.c., ddY mice
# memory maintenance = test: novel object recognition test for evaluation of memory maintenance; conditions: Example 4, FIG. 4; 500 nmol/kg weight (1000 μg/kg weight), once orally 60 min before training trial; retention trial 48 hours later; ddY mice
# Method: Male mice (n=14 to 15) of the ddY strain (approximately 7-week old) were used, and they received food and water ad lib. A test substance used was 500 nmol/kg weight (1000 μg/kg weight) of Asn-Ile-Pro-Pro-Leu-Thr-Gln-Thr-Pro-Val-Val-Val-Pro-Pro-Phe-Leu-Gln-Pro-Glu. The test substance was administered to the mice once orally 60 minutes before the execution of a novel object recognition test for evaluation of memory maintenance. In the novel object recognition test, a 30 cm x30 cm x30 cm box was used as an experimental device. For acclimation, each of the mice was placed in the experimental device with floor bedding for 5 minutes, and then allo the aminals to go around freely in the device. On the next day of the acclimation treatment, a training trial was performed. In the training trial, two among three kinds of objects were selected and disposed in the experimental device (the objects were arranged along the central line of the floor at positions 8 cm away from the walls on two sides, and the positions were designated as X1 and X2). […] In the training trial and the retention trial, the time (seconds) the mice spent exploring each object by approaching within 1 cm therefrom was measured (except the time when the mice were riding on the object). For each of the training trial and the retention trial, an exploration time ratio between the two objects was calculated. […]
# [3] = Example 2, FIG. 2, 50 nmol/kg weight, scopolamine 1 mg/kg s.c., Dunnett's test vs scopolamine control
# [4] = Example 6, FIG. 6, 500 nmol/kg weight, Student's t-test
# [5] = Example 3, FIG. 3, 500 nmol/kg weight (1000 μg/kg weight), Dunnett's test
Sequence,"prophylactic activity against amnesia (percentage of spontaneous alternation behavior) [1, 3]","prophylactic activity against amnesia (percentage of spontaneous alternation behavior) [2, 4]",other results
IPPLTQTPVVVPPFLQPE (Synthetic functional peptide) [Ile-Pro-Pro-Leu-Thr-Gln-Thr-Pro-Val-Val-Val-Pro-Pro-Phe-Leu-Gln-Pro-Glu],had a prophylactic activity against amnesia,,
LTQTPVVVPPFLQPE (Synthetic functional peptide) [Leu-Thr-Gln-Thr-Pro-Val-Val-Val-Pro-Pro-Phe-Leu-Gln-Pro-Glu],,had a prophylactic activity against amnesia,
NIPPLTQTPVVVPPFLQP (Synthetic comparative example) [Asn-Ile-Pro-Pro-Leu-Thr-Gln-Thr-Pro-Val-Val-Val-Pro-Pro-Phe-Leu-Gln-Pro],did not show any prophylactic activity against amnesia,,
NIPPLTQTPVVVPPFLQPE (Synthetic functional peptide) [Asn-Ile-Pro-Pro-Leu-Thr-Gln-Thr-Pro-Val-Val-Val-Pro-Pro-Phe-Leu-Gln-Pro-Glu],had a prophylactic activity against amnesia,,"prophylactic activity against amnesia (percentage of spontaneous alternation behavior) [2, 5]: had a prophylactic activity against amnesia; memory strengthening activity (exploration time ratio of novel object) (memory maintenance): had a memory strengthening activity; prophylactic activity against amnesia (percentage of spontaneous alternation behavior) ([1]; Example 1, FIG. 1, 0.05 nmol/kg weight to 500 nmol/kg weight (0.1 to 1000 μg/kg weight), scopolamine 1 mg/kg s.c. 30 min before, Dunnett's test): had a prophylactic activity against amnesia"
NIPPLTQTPVVVPPFLQPEVM (Synthetic functional peptide),had a prophylactic activity against amnesia,,
PLTQTPVVVPPFLQPE (Synthetic functional peptide) [Pro-Leu-Thr-Gln-Thr-Pro-Val-Val-Val-Pro-Pro-Phe-Leu-Gln-Pro-Glu],,had a prophylactic activity against amnesia,
PPLTQTPVVVPPFLQPE (Synthetic functional peptide) [Pro-Pro-Leu-Thr-Gln-Thr-Pro-Val-Val-Val-Pro-Pro-Phe-Leu-Gln-Pro-Glu],,,"prophylactic activity against amnesia (percentage of spontaneous alternation behavior) [2, 5]: had a prophylactic activity against amnesia"
PVVVPPFLQPE (Synthetic functional peptide) [Pro-Val-Val-Val-Pro-Pro-Phe-Leu-Gln-Pro-Glu],,had a prophylactic activity against amnesia,
TQTPVVVPPF (Synthetic comparative example) [Thr-Gln-Thr-Pro-Val-Val-Val-Pro-Pro-Phe],did not show any prophylactic activity against amnesia,,
TQTPVVVPPFLQPE (Synthetic functional peptide) [Thr-Gln-Thr-Pro-Val-Val-Val-Pro-Pro-Phe-Leu-Gln-Pro-Glu],,,"prophylactic activity against amnesia (percentage of spontaneous alternation behavior) ([2]; Example 5, FIG. 5, 50 nmol/kg weight (80 μg/kg weight), Student's t-test): had a prophylactic activity against amnesia"
VVVPPFLQPE (Synthetic functional peptide) [Val-Val-Val-Pro-Pro-Phe-Leu-Gln-Pro-Glu],,had a prophylactic activity against amnesia,

# From patent US8569241B2, “Composition for improving brain function and method for improving brain function” (Calpis Co., Ltd., priority 2009, dated 2013)
